ChEMBL document CHEMBL1147415, “Inhibition kinetics of carba- and C-fucosyl analogues of GDP-fucose against fucosyltransferase V: implication for the reaction mechanism” (Bioorg Med Chem Lett, 2004)

How the values were obtained:
[1] = target: T1, 4-galactosyl-N-acetylglucosaminide 3-alpha-L-fucosyltransferase FUT5 (Homo sapiens, UniProt Q11128); experiment: Inhibition of Fucosyltransferase 5 by the compound was evaluated; Competitive inhibition
T1 sequence (Q11128 whole entry): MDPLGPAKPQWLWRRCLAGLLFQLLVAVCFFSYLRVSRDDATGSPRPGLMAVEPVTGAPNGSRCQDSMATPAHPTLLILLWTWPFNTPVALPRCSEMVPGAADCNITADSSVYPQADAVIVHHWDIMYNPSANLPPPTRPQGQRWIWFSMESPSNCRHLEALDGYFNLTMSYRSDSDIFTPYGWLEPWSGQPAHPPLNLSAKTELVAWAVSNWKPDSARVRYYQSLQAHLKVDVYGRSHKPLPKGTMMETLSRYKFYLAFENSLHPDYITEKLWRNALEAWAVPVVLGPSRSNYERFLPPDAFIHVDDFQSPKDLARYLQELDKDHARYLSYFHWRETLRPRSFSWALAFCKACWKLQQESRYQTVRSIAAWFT

[2] = target: T1, 4-galactosyl-N-acetylglucosaminide 3-alpha-L-fucosyltransferase FUT5; experiment: Inhibition of Fucosyltransferase 5 by the compound was evaluated; Weak competitive inhibition

| Ki [1] [µM] | Ki [2] [µM] | SMILES |
| --- | --- | --- |
| 67.1 | – | CC1CC(OP(=O)(O)OP(=O)(O)OC[C@H]2OC(n3cnc4c(O)nc(N)nc43)[C@H](O)[C@@H]2O)C(O)C(O)C1O (some centres not stated) |
| – | 889 | CC1OC(CP(=O)(O)OP(=O)(O)OC[C@H]2OC(n3cnc4c(=O)[nH]c(N)nc43)[C@H](O)[C@@H]2O)C(O)C(O)C1O (some centres not stated) |
